{
  "source": "patent US20100035978A1",
  "about": "“COMBINATION OF CANNABINOIDS FOR THE TREATMENT OF PERIPHERAL NEUROPATHIC PAIN” (GW Pharma Limited, priority 2005, published 2010)",
  "origin": "cited, not measured here",
  "system": "patients taking carbamezepine",
  "data": [
    {"smiles": "NC(=O)N1c2ccccc2C=Cc2ccccc21", "note": "[carbamezepine]", "values": [
      {"measurement": "increase in the risk of blood dyscrasias", "setting": "post-marketing studies", "result": "five- to eight-fold"},
      {"measurement": "patients with a 25% decrease in white blood cell count", "setting": "usually reverses within the first 4 months of therapy", "result": 7, "unit": "%"}
    ]}
  ]
}
